{"source": "patent EP1170007A1", "about": "“REMEDIES” (Takara Shuzo Co, Ltd., priority 1999, dated 2000)", "key": {"[1]": {"tested_on": "HGF production, MRC-5 cells", "assay": "Enhancement of HGF production in MRC-5 cells (ELISA)", "assay_type": "cell-based, Human", "conditions": "24 hours, negative control defined as 100% (7.2 ng/ml)", "method": "MRC-5 cells (CCL171, Dainippon Pharmaceutical) were suspended in a DME medium (Bio Whittaker) containing 10% fetal calf serum at a concentration of 1 x 10^5 cells/ml. 500 µl of the suspension was placed into a 48-well cell culture plate. After culturing at 37°C in the presence of 5% CO2 for 24 hours, the medium was exchanged for a DME medium containing 1% fetal calf serum. Then, one of samples was added thereto. The plate was incubated for additional 24 hours. The medium was then recovered, and the amount of HGF in the culture medium was measured using Quantikine Human Hepatocyte Growth Factor (HGF) ELISA Kit (Funakoshi). The amount of HGF produced was expressed defining a negative control as 100%. In this case, the amount of HGF produced for the negative control was 7.2 ng/ml. Cyclopentenone (at a final concentration of 20, 40 or 160 µM), GM (at a final concentration of 20, 40, 80 or 160 µM), or dipropionylcyclopentenone (at a final concentration of 32 or 64 µM) was added as a sample. As a negative control, distilled water was added in the same volume as the sample. As a positive control, prostaglandin E1 was added at a final concentration of 0.01, 0.1, 1 or 10 µM."}, "[2]": {"tested_on": "nerve growth factor production by L-M cells", "assay": "Enhancement of nerve growth factor production in L-M cells (enzyme immunoassay)", "assay_type": "cell-based, Rat", "conditions": "for Nerve growth factor concentration: 24 hours, 0 µM control 0.132", "method": "Rat fibroblast L-M cells (ATCC CCL-1.2) were suspended in a M199 medium (Gibco) containing 0.5% Bacto Peptone (Gibco) at a concentration of 1.0 x 10^5 cells/ml. 1 ml of the suspension was inoculated into each well of a 24-well plate. The cells were cultured aseptically. After culturing for 2 days, the medium was removed and substituted with a M199 medium containing 0.5% bovine serum albumin (Sigma). Then, cyclopentenone (final concentration of 1 to 25 µM), 4HCP (Aldrich) (final concentration of 12.5µM) or dipropionylcyclopentenone (final concentration of 3.1 to 9.4 µM) was added thereto. […]\nAfter completion of the incubation, the concentration of nerve growth factor in the culture was measured by enzyme immunoassay (NGF Emax Immuno Assay System: Promega). […]"}, "mouse": {"tested_on": "mouse", "assay": "Single oral dose toxicity in mouse", "assay_type": "in vivo", "conditions": "single dose orally administered to a mouse at 100 mg/kg"}}}
{"substance": "dipropionylcyclopentenone", "values": [{"measurement": "Increase in HGF production", "setting": "[1]; 32 µM", "result": 120, "unit": "%"}, {"measurement": "Increase in HGF production", "setting": "[1]; 64 µM", "result": 144, "unit": "%"}, {"measurement": "Nerve growth factor concentration", "setting": "[2]; 3.1 µM", "result": 0.164, "unit": "ng/mL"}, {"measurement": "Nerve growth factor concentration", "setting": "[2]; 6.3 µM", "result": 0.259, "unit": "ng/mL"}, {"measurement": "Nerve growth factor concentration", "setting": "[2]; 9.4 µM", "result": 0.257, "unit": "ng/mL"}, {"measurement": "production of nerve growth factor by L-M cells (result in words)", "setting": "[2]; 24 hours incubation", "result": "enhanced the production of nerve growth factor by L-M cells in a concentration-dependent manner"}, {"measurement": "death after single oral dose", "setting": "mouse", "result": "no example of death was observed"}]}
